Laboratory results from paper PMC6420064 (Journal of medicinal chemistry, 2019).
Entries after “also recorded” stand apart in the source; their conditions may differ. Values belong to the compound of their own block, whether it stands above or below them.

Tests used:
[1] = following IV administration; cited from earlier work
GlyT2 [2] = conditions: read-out: GlyT2 IC50; cited from earlier work
GlyT1 = conditions: cited from earlier work
[3] = test system: nerve ligation rat model of neuropathic pain; format: in vivo; conditions: 30 mg/kg ip, compared to vehicle
male Sprague Dawley rats = test: Side effects in the analgesia study; format: in vivo, rat; conditions: 30 mg/kg ip
human GlyT2a = target: T1, human GlyT2a (Homo sapiens, UniProt Q9Y345); format: cell-based
T1 sequence (Q9Y345 1-797): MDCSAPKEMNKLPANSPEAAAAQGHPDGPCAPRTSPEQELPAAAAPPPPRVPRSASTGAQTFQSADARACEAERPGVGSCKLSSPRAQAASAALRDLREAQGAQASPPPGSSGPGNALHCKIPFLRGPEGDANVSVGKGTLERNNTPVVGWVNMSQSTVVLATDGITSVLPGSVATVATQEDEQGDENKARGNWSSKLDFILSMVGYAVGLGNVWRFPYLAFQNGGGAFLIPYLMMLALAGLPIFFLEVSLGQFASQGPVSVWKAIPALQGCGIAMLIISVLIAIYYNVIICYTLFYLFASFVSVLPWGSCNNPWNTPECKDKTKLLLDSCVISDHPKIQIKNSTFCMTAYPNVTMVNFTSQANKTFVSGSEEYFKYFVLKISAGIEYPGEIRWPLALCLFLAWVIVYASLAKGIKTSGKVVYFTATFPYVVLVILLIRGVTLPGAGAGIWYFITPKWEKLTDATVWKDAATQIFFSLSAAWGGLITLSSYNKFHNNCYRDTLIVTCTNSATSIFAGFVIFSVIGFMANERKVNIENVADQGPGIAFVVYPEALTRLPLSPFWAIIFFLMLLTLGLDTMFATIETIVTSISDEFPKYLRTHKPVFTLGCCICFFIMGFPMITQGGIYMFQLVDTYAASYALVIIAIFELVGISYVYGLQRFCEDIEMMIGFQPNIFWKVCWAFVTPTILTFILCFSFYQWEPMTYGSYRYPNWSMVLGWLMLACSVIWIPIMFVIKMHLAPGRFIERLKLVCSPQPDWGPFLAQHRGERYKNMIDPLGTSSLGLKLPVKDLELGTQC

[4] = Stability in human plasma; format: in vitro ADME
[5] = Stability in rat liver microsomes; format: in vitro ADME
GlyT2 [6] = target: T2, GlyT2 (Homo sapiens, UniProt Q9Y345); format: cell-based
T2 sequence (Q9Y345 1-797): T1 sequence (Q9Y345 1-797)

[7] = Stability in human liver microsomes; format: in vitro ADME; conditions: for half-life at 1 μM: human, human liver microsomes, pH 7.4
Stability in rat plasma = format: in vitro ADME
human GlyT1b = target: T3, human GlyT1b (Homo sapiens, UniProt P48067); format: cell-based; conditions: 3 μM (maximal concentration)
T3 sequence (P48067 1-652 isoform P48067-3): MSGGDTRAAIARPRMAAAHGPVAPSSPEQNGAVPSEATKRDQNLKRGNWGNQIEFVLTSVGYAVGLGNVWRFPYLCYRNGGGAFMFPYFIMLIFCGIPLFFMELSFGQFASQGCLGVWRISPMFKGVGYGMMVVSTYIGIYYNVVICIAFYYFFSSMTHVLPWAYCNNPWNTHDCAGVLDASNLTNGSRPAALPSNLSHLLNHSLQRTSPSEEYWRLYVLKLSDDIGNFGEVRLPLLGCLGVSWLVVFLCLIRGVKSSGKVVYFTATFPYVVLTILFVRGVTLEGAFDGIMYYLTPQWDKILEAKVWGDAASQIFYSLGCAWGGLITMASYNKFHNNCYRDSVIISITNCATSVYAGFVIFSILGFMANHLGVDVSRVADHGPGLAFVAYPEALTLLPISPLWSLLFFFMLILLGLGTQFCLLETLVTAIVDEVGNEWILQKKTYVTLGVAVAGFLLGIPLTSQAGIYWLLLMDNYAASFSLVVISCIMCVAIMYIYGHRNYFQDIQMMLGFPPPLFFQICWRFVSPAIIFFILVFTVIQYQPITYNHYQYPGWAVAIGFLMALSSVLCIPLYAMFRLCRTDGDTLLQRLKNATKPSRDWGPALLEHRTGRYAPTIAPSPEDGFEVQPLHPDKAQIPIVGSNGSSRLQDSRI

[8] = test system: sphingosine-1-phosphate receptor; test: Lipid receptor screen, agonist/antagonist
Adrenergic α2A receptor = target: T4, Adrenergic α2A receptor (Homo sapiens, UniProt P08913); test: Selectivity panel, displacement of radioactive ligand; format: binding; conditions: 10 μM
T4 sequence (P08913 1-465): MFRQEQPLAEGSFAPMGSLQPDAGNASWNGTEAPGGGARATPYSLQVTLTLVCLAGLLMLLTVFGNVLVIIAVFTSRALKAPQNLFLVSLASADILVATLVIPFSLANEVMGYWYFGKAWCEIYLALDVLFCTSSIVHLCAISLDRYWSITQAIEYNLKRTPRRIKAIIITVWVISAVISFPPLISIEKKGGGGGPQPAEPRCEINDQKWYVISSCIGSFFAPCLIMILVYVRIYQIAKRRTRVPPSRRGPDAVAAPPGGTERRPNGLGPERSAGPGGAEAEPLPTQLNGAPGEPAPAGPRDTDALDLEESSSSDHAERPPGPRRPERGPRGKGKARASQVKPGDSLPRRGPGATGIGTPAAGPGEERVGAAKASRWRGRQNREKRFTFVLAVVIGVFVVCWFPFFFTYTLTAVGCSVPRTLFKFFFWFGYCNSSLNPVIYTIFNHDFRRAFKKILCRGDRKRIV

[9] = target: norepinephrine transporter (Homo sapiens, UniProt P23975); test: as above; format: binding; conditions: 10 μM
Sequence of norepinephrine transporter (P23975 whole entry, species assumed): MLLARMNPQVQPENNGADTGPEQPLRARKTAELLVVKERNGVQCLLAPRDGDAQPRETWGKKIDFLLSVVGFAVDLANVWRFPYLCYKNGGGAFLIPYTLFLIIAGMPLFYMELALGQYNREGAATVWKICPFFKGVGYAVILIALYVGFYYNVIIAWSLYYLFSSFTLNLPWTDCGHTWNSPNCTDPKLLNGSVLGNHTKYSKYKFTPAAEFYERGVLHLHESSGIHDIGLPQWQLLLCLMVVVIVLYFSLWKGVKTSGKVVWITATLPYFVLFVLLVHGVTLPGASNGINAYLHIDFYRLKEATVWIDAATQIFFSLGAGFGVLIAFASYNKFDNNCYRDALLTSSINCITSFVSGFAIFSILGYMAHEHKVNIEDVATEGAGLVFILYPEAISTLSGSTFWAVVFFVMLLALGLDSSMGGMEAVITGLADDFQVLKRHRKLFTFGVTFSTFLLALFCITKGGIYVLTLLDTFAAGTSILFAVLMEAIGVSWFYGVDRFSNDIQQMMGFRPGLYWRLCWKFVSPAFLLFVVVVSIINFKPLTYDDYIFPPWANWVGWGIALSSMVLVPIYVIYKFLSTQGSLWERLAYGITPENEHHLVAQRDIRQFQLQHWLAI

[10] = target: α7 nicotinic acetylcholine receptors (Homo sapiens, UniProt P36544); test: Pain target screen, α7 nicotinic acetylcholine receptors
Sequence of α7 nicotinic acetylcholine receptors (P36544 23-502): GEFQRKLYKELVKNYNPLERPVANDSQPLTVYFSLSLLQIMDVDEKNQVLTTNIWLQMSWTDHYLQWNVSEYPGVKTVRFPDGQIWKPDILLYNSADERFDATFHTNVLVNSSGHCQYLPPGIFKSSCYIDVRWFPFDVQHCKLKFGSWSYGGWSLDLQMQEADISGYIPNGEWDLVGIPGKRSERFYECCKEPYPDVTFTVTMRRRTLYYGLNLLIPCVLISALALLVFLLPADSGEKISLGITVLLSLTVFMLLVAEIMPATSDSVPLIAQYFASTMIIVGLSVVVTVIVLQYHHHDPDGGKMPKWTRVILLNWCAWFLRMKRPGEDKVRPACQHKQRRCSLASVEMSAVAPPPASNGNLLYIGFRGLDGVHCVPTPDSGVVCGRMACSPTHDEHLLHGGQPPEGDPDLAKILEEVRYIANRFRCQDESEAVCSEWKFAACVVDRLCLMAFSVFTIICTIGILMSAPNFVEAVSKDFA

Nav channels = test: Pain target screen, Nav channels
CB2 = CB2 (Homo sapiens, UniProt P34972); test: Lipid receptor screen, agonist/antagonist
Sequence of CB2 (P34972 whole entry, species assumed): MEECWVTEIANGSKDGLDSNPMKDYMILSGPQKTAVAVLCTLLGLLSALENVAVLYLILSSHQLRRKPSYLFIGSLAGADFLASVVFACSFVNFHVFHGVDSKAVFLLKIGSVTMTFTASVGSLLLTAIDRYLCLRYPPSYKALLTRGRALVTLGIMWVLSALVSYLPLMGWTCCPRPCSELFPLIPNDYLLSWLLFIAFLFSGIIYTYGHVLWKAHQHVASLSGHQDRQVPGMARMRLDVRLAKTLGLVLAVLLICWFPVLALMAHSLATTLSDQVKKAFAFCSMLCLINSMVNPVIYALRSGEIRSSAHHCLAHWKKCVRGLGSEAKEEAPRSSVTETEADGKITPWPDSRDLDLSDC

GlyT2 [11] = target: T2, GlyT2; test: Electrophysiology washout assay; format: cell-based; conditions: IC50 concentration of inhibitor, after 25 minutes wash
[12] = In vivo pharmacokinetic study, plasma and brain exposure; design: species or system rat
μOR = μOR (Homo sapiens, UniProt P35372); test: μOR agonist/antagonist activity in AtT20 cells expressing μORs; format: cell-based; conditions: 1 μM
Sequence of μOR (P35372 whole entry): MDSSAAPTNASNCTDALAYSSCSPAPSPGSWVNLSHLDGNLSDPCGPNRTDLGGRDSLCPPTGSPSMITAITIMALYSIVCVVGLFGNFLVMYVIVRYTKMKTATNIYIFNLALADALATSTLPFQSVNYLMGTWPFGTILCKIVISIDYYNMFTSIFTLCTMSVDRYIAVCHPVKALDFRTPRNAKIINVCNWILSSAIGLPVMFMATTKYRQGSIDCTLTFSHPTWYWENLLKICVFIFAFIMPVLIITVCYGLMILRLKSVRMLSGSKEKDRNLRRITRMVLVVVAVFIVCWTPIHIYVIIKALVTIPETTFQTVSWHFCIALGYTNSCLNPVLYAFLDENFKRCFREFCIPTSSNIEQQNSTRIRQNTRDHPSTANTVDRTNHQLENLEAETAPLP

CB1 = CB1 (Homo sapiens, UniProt P21554); test: Lipid receptor screen, agonist/antagonist
Sequence of CB1 (P21554 whole entry, species assumed): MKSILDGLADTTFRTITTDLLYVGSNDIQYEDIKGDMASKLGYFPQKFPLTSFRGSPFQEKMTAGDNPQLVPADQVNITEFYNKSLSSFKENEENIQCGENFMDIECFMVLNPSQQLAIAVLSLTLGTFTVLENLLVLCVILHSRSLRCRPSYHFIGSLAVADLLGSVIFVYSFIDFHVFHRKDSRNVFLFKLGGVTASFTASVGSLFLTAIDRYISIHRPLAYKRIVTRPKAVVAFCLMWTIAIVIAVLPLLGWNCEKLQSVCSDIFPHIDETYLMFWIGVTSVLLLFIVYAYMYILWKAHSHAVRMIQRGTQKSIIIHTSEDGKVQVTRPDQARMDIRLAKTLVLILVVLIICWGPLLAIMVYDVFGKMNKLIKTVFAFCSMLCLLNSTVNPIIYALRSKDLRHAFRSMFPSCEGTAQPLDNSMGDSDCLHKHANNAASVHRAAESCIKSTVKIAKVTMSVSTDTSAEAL

μ opioid receptor (μOR) = μ opioid receptor (μOR) (Homo sapiens, UniProt P35372); test: Selectivity panel, displacement of radioactive ligand; format: binding; conditions: 10 μM
Sequence of μ opioid receptor (μOR) (P35372 whole entry, species assumed): as the sequence (P35372 whole entry) above

Cav channels = test: Pain target screen, Cav channels

SMILES: N[C@@H](COC(c1cccc(F)c1)c1ccccc1OCc1ccccc1)C(=O)O (stereo partly shown) [Compound 1, ALX1393]
- ratio of unbound drug in brain and plasma (Kp,uu) [1]: 0.05
- IC50 (GlyT2 [2]): 100 nM

SMILES: COc1cc(C(=O)NCC2(N(C)C)CCCC2)cc(OC)c1OCc1ccccc1 [Compound 2, ORG25543]
- activity at GlyT1 (GlyT1): no appreciable activity
- reversal of allodynia (analgesia) [3]: Non-significant reversal of allodynia
- animals with side effects (male Sprague Dawley rats): 4 out of the 6
- duration of side effects post injection (male Sprague Dawley rats): up to 60 min
- side effects (male Sprague Dawley rats): more severe side effects
- IC50 (GlyT2 [2]): 16 nM

SMILES: CCCCCCCC/C=C\CCCCCCCC(=O)NCC(=O)O [Compound 4, N-oleoyl glycine]
- effect on GlyT1 (GlyT1; concentrations up to 10 μM): no effect

SMILES: CCCCC/C=C\C/C=C\C/C=C\C/C=C\CCCC(=O)NCC(=O)O [Compound 5, N-arachidonyl glycine]
- activity at GlyT1 (GlyT1): little activity

- fold improvement in GlyT2 activity (human GlyT2a; relative to 14): ~ 9 fold
SMILES: CCCCCCCC/C=C\CCCCCCCC(=O)N[C@@H](CCSC)C(=O)O [Compound 12, (2S)-4-methylsulfanyl-2-[[(Z)-octadec-9-enoyl]amino]butanoic acid]

- fold less potent than 10 at GlyT2 (human GlyT2a; relative to 10): 2 fold
SMILES: CCCCCCCC/C=C\CCCCCCCC(=O)N[C@@H](CCCC)C(=O)O [Compound 14, (2S)-2-[[(Z)-octadec-9-enoyl]amino]hexanoic acid]

- half-life at 1000 ng/mL ([4]; human, human plasma (pooled)): > 17 h
- stability in rat liver microsomes [5]: rapidly metabolised
- mechanism of GlyT2 inhibition (GlyT2 [6]): non-competitive inhibitor
- stability in human liver microsomes [7]: stable
- half-life at 1 μM [7]: > 4.25 h
- fold improvement of degradation half-life (Stability in rat plasma; rat plasma, relative to 4): ~ 3 fold
- inhibition of GlyT1 glycine currents (human GlyT1b): not reduced
SMILES: CCCCCCCC/C=C\CCCCCCCC(=O)N[C@@H](CCCCN)C(=O)O.Cl [Compound 32, (2S)-6-amino-2-[[(Z)-octadec-9-enoyl]amino]hexanoic acid.HCl]

- activity as agonist or antagonist at sphingosine-1-phosphate receptor [8]: no activity
- displacement of radioactive ligands (Adrenergic α2A receptor): greater than 50%
- displacement of radioactive ligands [9]: greater than 50%
- degradation in human plasma [4]: did not exhibit measurable degradation
- stability in rat liver microsomes [5]: minimally degraded
- half-life at 1 μM ([5]; rat, rat liver microsomes, pH 7.4): > 4.25 h
- stability in human liver microsomes [7]: stable
- half-life at 1 μM [7]: > 4.25 h
- inhibition of α7 nicotinic acetylcholine receptors [10]: no significant inhibition
- degradation in rat plasma (Stability in rat plasma): did not exhibit measurable degradation
- inhibition of GlyT1 glycine currents (human GlyT1b): little inhibition
- activity as agonist or antagonist at CB2 (CB2): no activity
- recovery of transport after washout (GlyT2 [11]): completely restored
- concentration of unbound drug (Cunbound) in brain at Cmax ([12]; 27.5 mg/kg ip): approximately 90 nM
- Cmax Brain ([12]; single 27.5 mg/kg ip, Sprague Dawley rats): 1854 ng/g
- activity as a μOR agonist or antagonist (μOR): no activity
- activity as agonist or antagonist at CB1 (CB1): no activity
- displacement of radioactive ligands (μ opioid receptor (μOR)): greater than 50%
SMILES: CCCCCCCC/C=C\CCCCCCCC(=O)N[C@H](CCCCN)C(=O)O.Cl [Compound 33, (2R)-6-amino-2-[[(Z)-octadec-9-enoyl]amino]hexanoic acid.HCl]
- inhibition of Nav channels (Nav channels): no significant inhibition
- reversal of allodynia (analgesia) [3]: significant analgesia; also recorded: Significant reversal of allodynia
- duration of side effects post injection (male Sprague Dawley rats): up to 15 min
- side effects (male Sprague Dawley rats): Mild side effects
- inhibition of Cav channels (Cav channels): no significant inhibition

- fold reduction of GlyT2 potency (human GlyT2a; relative to 32): ~ 22 fold
SMILES: CCCCCCCC/C=C\CCCCCCCC(=O)NCCCCCN.Cl [Compound 37, (Z)-N-(5-aminopentyl)octadec-9-enamide.HCl]
